Legend:
Assay in all cases: KiNativ profiling in H3255 cells
Assay type in all cases: cell-based, human
[1] = tested on: T1, MST1; settings: 2.5 µM; Lys1; ETGQIVAIKQVPVESDLQEIIK
T1 construct: purchased ActivX Biosciences (KiNativ)
Description: (§1) H3255 cells were plated with 6.5x10^6 per condition in fresh media in 15 cm plates and treated the 80% confluency for 2 hours with DMSO or 2.5 μM of ZNL-0056. To harvest cells, plates were washed 3 times with cold PBS, then collected by scraping into 4 mL of cold PBS containing protease and phosphatase inhibitors. Cells were pelleted by centrifugation at 1350 g at 4 ℃ for 5 minutes and immediately frozen in liquid nitrogen. The frozen samples were sent to ActivX Biosciences (La Jolla, CA) for the remainder of the KiNativ profiling experiment4. […]

[2] = tested on: T2, EphA2; settings: 2.5 µM; Activation Loop; VLEDDPEATYTTSGGKIPIR
T2 construct: purchased ActivX Biosciences (KiNativ)
Description: as §1

[3] = tested on: BRAF, RAF1; settings: 2.5 µM; Activation Loop; IGDFGLATVKSR
Description: as §1

[4] = tested on: T3, CASK; settings: 2.5 µM; Lys1; ETGQQFAVKIVDVAK
T3 construct: purchased ActivX Biosciences (KiNativ)
Description: as §1

[5] = tested on: T4, SRPK1; settings: 2.5 µM; Lys2; IIHTDIKPENILLSVNEQYIR
T4 construct: purchased ActivX Biosciences (KiNativ)
Description: as §1

[6] = tested on: T5, PHKg2; settings: 2.5 µM; Lys1; ATGHEFAVKIMEVTAER
T5 construct: purchased ActivX Biosciences (KiNativ)
Description: as §1

[7] = tested on: T6, MAP2K3; settings: 2.5 µM
T6 construct: purchased ActivX Biosciences (KiNativ)
Description: as §1

[8] = tested on: IKKe, TBK1; settings: 2.5 µM; Lys2; DIKPGNIMR
Description: as §1

[9] = tested on: T7, LATS2; settings: 2.5 µM
T7 construct: purchased ActivX Biosciences (KiNativ)
Description: as §1

[10] = tested on: T8, HER3/ErbB3; settings: 2.5 µM
T8 construct: purchased ActivX Biosciences (KiNativ)
Description: as §1

[11] = tested on: T9, eEF2K; settings: 2.5 µM; ATP; YIKYNSNSGFVR
T9 construct: purchased ActivX Biosciences (KiNativ)
Description: as §1

[12] = tested on: T10, ULK3; settings: 2.5 µM; Lys1; EVVAIKCVAK
T10 construct: purchased ActivX Biosciences (KiNativ)
Description: as §1

[13] = tested on: T11, MLKL; settings: 2.5 µM; Lys1; APVAIKVFK
T11 construct: purchased ActivX Biosciences (KiNativ)
Description: as §1

[14] = tested on: T12, PI4KB; settings: 2.5 µM, ATP
T12 construct: purchased ActivX Biosciences (KiNativ)
Description: as §1

[15] = tested on: T13, EphB2; settings: 2.5 µM; Activation Loop; FLEDDTSDPTYTSALGGKIPIR
T13 construct: purchased ActivX Biosciences (KiNativ)
Description: as §1

[16] = tested on: T14, PKCi; settings: 2.5 µM
T14 construct: purchased ActivX Biosciences (KiNativ)
Description: as §1

[17] = tested on: CK1d, CK1e; settings: 2.5 µM; Lys2; DVKPDNFLMGLGKK
Description: as §1

[18] = tested on: T15, ROCK1; settings: 2.5 µM; Other; KLQLELNQER
T15 construct: purchased ActivX Biosciences (KiNativ)
Description: as §1

[19] = tested on: T16, Wee1; settings: 2.5 µM; Lys2; YIHSMSLVHMDIKPSNIFISR
T16 construct: purchased ActivX Biosciences (KiNativ)
Description: as §1

[20] = tested on: T17, CDK9; settings: 2.5 µM
T17 construct: purchased ActivX Biosciences (KiNativ)
Description: as §1

[21] = tested on: FYN, SRC, YES; settings: 2.5 µM; Activation Loop; QGAKFPIKWTAPEAALYGR
Description: as §1

[22] = tested on: PI4KA, PI4KAP2; settings: 2.5 µM; ATP; SGTPMQSAAKAPYLAK
Description: as §1

[23] = tested on: T18, FAM20B; settings: 2.5 µM; ATP; ETEPACADGDIMEGSVTLWLPDVWPLQKHR
T18 construct: purchased ActivX Biosciences (KiNativ)
Description: as §1

[24] = tested on: T19, PLK2; settings: 2.5 µM; Lys2; DLKLGNFFINEAMELK
T19 construct: purchased ActivX Biosciences (KiNativ)
Description: as §1

[25] = tested on: T20, CDK6; settings: 2.5 µM; Lys2; DLKPQNILVTSSGQIK
T20 construct: purchased ActivX Biosciences (KiNativ)
Description: as §1

[26] = tested on: MAP3K15, MAP3K5, MAP3K6; settings: 2.5 µM; Lys1; IAIKEIPER
Description: as §1

[27] = tested on: T21, PI4K2B; settings: 2.5 µM; ATP; SEEPYGQLNPKWTK
T21 construct: purchased ActivX Biosciences (KiNativ)
Description: as §1

[28] = tested on: T22, TBK1; settings: 2.5 µM; Lys1; TGDLFAIKVFNNISFLRPVDVQMR
T22 construct: purchased ActivX Biosciences (KiNativ)
Description: as §1

[29] = tested on: T23, CHK1; settings: 2.5 µM; Lys2; DIKPENLLLDER
T23 construct: purchased ActivX Biosciences (KiNativ)
Description: as §1

[30] = tested on: T24, MST3; settings: 2.5 µM; Lys2; DIKAANVLLSEHGEVK
T24 construct: purchased ActivX Biosciences (KiNativ)
Description: as §1

[31] = tested on: T25, p70S6Kb; settings: 2.5 µM; Lys2; DLKPENIMLSSQGHIK
T25 construct: purchased ActivX Biosciences (KiNativ)
Description: as §1

[32] = tested on: T26, Erk1; settings: 2.5 µM; Lys2; DLKPSNLLINTTCDLK
T26 construct: purchased ActivX Biosciences (KiNativ)
Description: as §1

[33] = Activation Loop, MCDFGISGYLVDSVAKTMDAGCKPYMAPER
[34] = Activation Loop, SPSQVQVADFGVADLLPPDDKQLLYSEAKTPIK

C=CC(=O)Nc1cc(C(=O)Nc2nc3cccc(C)c3n2[C@@H]2CCCCN(C(=O)C=C)C2)cs1 [ZNL-0056]
Inhibition [1]: -5.5% | Inhibition [2]: 13.2% | Inhibition [3]: -19.4% | Inhibition [4]: -14.3% | Inhibition [5]: 2.6% | Inhibition [6]: -4.2% | Inhibition [7, 33]: 11.1% | Inhibition ([7]; Lys2, DVKPSNVLINK): -14.4% | Inhibition [8]: 1.9% | Inhibition ([9]; Lys1, VDTHALYAMKTLR): 15.4% | Inhibition ([9]; Lys2, DIKPDNILIDLDGHIK): 23.5% | Inhibition [10, 34]: 25.6% | Inhibition ([10]; Lys1, GVWIPEGESIKIPVCIKVIEDK): -12.4% | Inhibition [11]: -31.5% | Inhibition [12]: -7.8% | Inhibition [13]: 4.5% | Inhibition ([14]; LLSVIVKCGDDLRQELLAFQVLK): -9.0% | Inhibition ([14]; VPHTQAVVLNSKDK): -25.9% | Inhibition [15]: -8.5% | Inhibition ([16]; Lys1, IYAMKVVK): 2.3% | Inhibition ([16]; Lys2, DLKLDNVLLDSEGHIK): 15.4% | Inhibition [17]: 10.8% | Inhibition [18]: -20.4% | Inhibition [19]: 13.4% | Inhibition ([20]; ATP Loop, IGQGTFGEVFKAR): -9.9% | Inhibition ([20]; Lys2, DMKAANVLITR): 16.6% | Inhibition [21]: 1.6% | Inhibition [22]: -23.5% | Inhibition [23]: -17.9% | Inhibition [24]: 18.8% | Inhibition [25]: -27.5% | Inhibition [26]: -7.9% | Inhibition [27]: -26.7% | Inhibition [28]: 5.3% | Inhibition [29]: -8.1% | Inhibition [30]: -1.1% | Inhibition [31]: -8.5% | Inhibition [32]: -17.6%

C=CC(=O)Nc1cc(Nc2nccc(-c3cn(C)c4ccccc34)n2)c(OC)cc1N(C)CCN(C)C [Osimertinib, osimertinib, reference compound]
Inhibition [1]: -24.9% | Inhibition [2]: 18.1% | Inhibition [3]: -21.1% | Inhibition [4]: 6.8% | Inhibition [5]: 2.2% | Inhibition [6]: -24.7% | Inhibition [7, 33]: -14.4% | Inhibition ([7]; Lys2, DVKPSNVLINK): -14.5% | Inhibition [8]: -9.4% | Inhibition ([9]; Lys1, VDTHALYAMKTLR): -12.9% | Inhibition ([9]; Lys2, DIKPDNILIDLDGHIK): -15.6% | Inhibition [10, 34]: -24.2% | Inhibition ([10]; Lys1, GVWIPEGESIKIPVCIKVIEDK): -64.6% | Inhibition [11]: -9.7% | Inhibition [12]: -21.6% | Inhibition [13]: -10.0% | Inhibition ([14]; LLSVIVKCGDDLRQELLAFQVLK): -20.5% | Inhibition ([14]; VPHTQAVVLNSKDK): 21.1% | Inhibition [15]: 1.1% | Inhibition ([16]; Lys1, IYAMKVVK): 5.6% | Inhibition ([16]; Lys2, DLKLDNVLLDSEGHIK): -27.3% | Inhibition [17]: 6.2% | Inhibition [18]: -7.6% | Inhibition [19]: 6.4% | Inhibition ([20]; ATP Loop, IGQGTFGEVFKAR): 12.0% | Inhibition ([20]; Lys2, DMKAANVLITR): 22.6% | Inhibition [21]: 7.8% | Inhibition [22]: 30.1% | Inhibition [23]: 20.1% | Inhibition [24]: 10.4% | Inhibition [25]: -8.5% | Inhibition [26]: -10.0% | Inhibition [27]: 26.7% | Inhibition [28]: -18.1% | Inhibition [29]: 15.0% | Inhibition [30]: -15.5% | Inhibition [31]: -28.8% | Inhibition [32]: -0.641%

Source: publication PMC11212140, “Molecular Bidents with Two Electrophilic Warheads as a New Pharmacological Modality” (ACS Central Science, 2024)
